pKi: −log10 of the molar value. *1 amine or outer side, *2 acyl side, *3 side chain or, on linkers, in order; H or OH if unused. Where a SMILES comes first, the peptide text is derived from it. [ ]: non-standard residue; d: D form. X1 = O=C(O)COc1ccc(C[C@H](N[*:1])C(=O)[*:2])cc1C(=O)O
Target: T1, Tyrosine-protein phosphatase non-receptor type 1 (Homo sapiens, UniProt P18031)
T1 sequence (P18031 whole entry): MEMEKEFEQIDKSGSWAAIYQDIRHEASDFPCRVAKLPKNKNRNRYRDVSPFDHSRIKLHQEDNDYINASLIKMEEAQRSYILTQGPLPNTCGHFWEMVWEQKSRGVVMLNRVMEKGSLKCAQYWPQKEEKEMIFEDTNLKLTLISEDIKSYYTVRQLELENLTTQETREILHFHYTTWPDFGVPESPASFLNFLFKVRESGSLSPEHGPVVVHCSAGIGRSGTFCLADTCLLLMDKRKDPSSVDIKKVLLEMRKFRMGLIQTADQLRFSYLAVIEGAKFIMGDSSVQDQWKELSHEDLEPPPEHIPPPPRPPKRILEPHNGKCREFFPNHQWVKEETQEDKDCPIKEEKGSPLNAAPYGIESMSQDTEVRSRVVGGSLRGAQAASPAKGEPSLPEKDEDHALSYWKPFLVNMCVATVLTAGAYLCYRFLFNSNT
Experiment: In vitro inhibitory concentration against Protein-tyrosine phosphatase 1B hydrolysis of p-nitrophenol phosphate

pKi	Structure (SMILES)
4.96	CC[C@@H](C)[C@H](NC(=O)C(Cc1ccc(OCC(=O)O)c(C(=O)O)c1)NC(=O)[C@H](CC(=O)O)NC(C)=O)C(=O)N[C@@H](CCCN=C(N)N)C(N)=O (stereo partly drawn)
4.39	CCC(C)[C@H](NC(=O)C(Cc1ccc(OCC(=O)O)c(C(=O)O)c1)NC(=O)[C@H](CC(=O)O)NC(C)=O)C(N)=O (stereo partly drawn)
4.74	CC[C@H](C)[C@H](NC(=O)[C@H](Cc1ccc(OCC(=O)O)c(C(=O)O)c1)NC(=O)[C@H](CC(=O)O)NC(C)=O)C(=O)N[C@@H](CCCN=C(N)N)C(=O)NCC(=O)NCC(=O)NCC(N)=O (Ac-D[X1]IRGGG-NH2)

From ChEMBL document CHEMBL1137043, “Development of a polyvalent assay system for lead identification” (Bioorg Med Chem Lett, 2004)
